# Substitutions are numbered along the chain they refer to. *1 amine or outer side, *2 acyl side, *3 side chain or, on linkers, in order; H or OH if unused. Where a SMILES comes first, the peptide text is derived from it. γGlu = O=C(O)[CH](CCC(=O)[*:2])N[*:1]
# Legend:
# human CaSR R66E mutant = target: T1, human CaSR R66E mutant (Homo sapiens, UniProt P41180, R66E); assay: Calcium mobilization assay, CaSR R66E mutant; format: cell-based; details: for Response in calcium mobilization assay: in words
# T1 construct: (N); expressed in transfected cells; host or cells: PEAKrapid cells (ATCC), pcDNA 3.1, transient transfection
# T1 sequence (P41180 20-1078 R66E): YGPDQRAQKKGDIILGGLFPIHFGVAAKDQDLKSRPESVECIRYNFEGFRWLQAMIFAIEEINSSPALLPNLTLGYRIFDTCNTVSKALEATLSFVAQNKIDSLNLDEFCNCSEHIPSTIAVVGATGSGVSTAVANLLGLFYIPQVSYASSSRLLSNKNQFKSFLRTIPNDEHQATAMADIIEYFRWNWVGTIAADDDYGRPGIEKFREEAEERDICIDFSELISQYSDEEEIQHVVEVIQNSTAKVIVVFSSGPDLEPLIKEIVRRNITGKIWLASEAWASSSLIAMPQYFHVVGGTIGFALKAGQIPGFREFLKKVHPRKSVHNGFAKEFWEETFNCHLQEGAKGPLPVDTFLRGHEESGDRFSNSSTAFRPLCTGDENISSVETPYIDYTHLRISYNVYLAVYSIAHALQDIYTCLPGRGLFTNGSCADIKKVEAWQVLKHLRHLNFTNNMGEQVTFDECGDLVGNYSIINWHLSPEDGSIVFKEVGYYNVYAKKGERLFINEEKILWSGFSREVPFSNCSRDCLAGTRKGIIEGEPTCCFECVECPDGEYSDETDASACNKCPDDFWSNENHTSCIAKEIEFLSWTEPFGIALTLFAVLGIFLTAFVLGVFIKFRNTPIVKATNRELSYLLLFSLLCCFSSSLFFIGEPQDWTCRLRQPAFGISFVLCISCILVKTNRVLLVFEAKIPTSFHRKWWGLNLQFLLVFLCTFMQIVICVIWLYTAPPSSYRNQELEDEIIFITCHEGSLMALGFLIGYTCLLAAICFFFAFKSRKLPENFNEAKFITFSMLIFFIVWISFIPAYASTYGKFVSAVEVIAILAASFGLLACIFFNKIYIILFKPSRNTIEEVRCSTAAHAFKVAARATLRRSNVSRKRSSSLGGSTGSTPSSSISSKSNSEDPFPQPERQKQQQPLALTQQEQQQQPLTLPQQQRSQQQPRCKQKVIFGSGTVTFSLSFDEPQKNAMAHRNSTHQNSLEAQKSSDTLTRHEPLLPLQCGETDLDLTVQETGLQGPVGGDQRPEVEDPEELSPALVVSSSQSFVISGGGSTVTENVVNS
# Protocol: (§1) The CaSR receptor responsiveness was assessed by using PEAK^rapid cells (ATCC, Manassas, VA, USA) transiently transfected with the receptor DNA by the method reported by Kitajima et al.[6]. Briefly, human CaSR or its mutant cDNA with a signal sequence (MAFYSCCWVLLALTWHTSA) followed by FLAG-tag (DYKDDDDK) were inserted into pcDNA 3.1 expression vectors in Opti-MEM I medium (Thermo Fisher Scientific), mixed with FuGENE 6 (Roche), and poured onto PEAK^rapid cells grown at a submaximal concentration. After culturing for 24 h in 96-well plates, the cells were incubated with 5 µM Calcium-5 solution (Calcium-5 assay kit, Molecular Devices) for 45–60 min, and measurements were performed using a plate reader (FDSS/µCELL, Hamamatsu Photonics, Shizuoka, Japan) and its associated software. The activation of CaSR expressed in cells increases the intracellular Ca^2+ concentration, which is measured using a Ca^2+-sensitive dye. The binding of Ca^2+ to the Ca^2+-sensitive dye increases dye fluorescence, with excitation at 485 nm and emission at 525 nm. Test compounds were dissolved and administered in the assay buffer (146 mM NaCl, 1 mM MgSO4, 20 mM HEPES, 1 mM CaCl2, 2.5 mM probenecid, and 1.39 mM glucose, pH 7.4). Transiently transfected cells were challenged with compounds and compared with the vehicle alone and/or mock-transfected cells. The concentration dependence of the fluorescence intensity (influx of Ca^2+) was analyzed using the plate reader at 1 s intervals for 180 s. For the dose–response curve calculations, peak fluorescence responses after the addition of compounds were corrected for, normalized to the background fluorescence (ΔF/F = –F − F0)/F0), and baseline noise was subtracted. Dose–response curves were calculated by non-linear regression using GraphPad PRISM 8.0.
# human CaSR P39S mutant = target: T2, human CaSR P39S mutant (Homo sapiens, UniProt P41180, P39S); assay: Calcium mobilization assay, CaSR P39S mutant; format: cell-based; details: for Response in calcium mobilization assay: in words
# T2 construct: expressed in transfected cells; host or cells: PEAKrapid cells (ATCC), pcDNA 3.1, transient transfection
# T2 sequence (P41180 20-1078 P39S): T1 sequence (P41180 20-1078 R66E) with P20S, E47R
# Protocol: as §1
SMILES,Response in calcium mobilization assay (human CaSR R66E mutant),Response in calcium mobilization assay (human CaSR P39S mutant),Emax (% of wild-type values) (human CaSR R66E mutant),"EC50 (human CaSR R66E mutant; mean ± s.e.m., n = 3)",Emax (% of wild-type values) (human CaSR P39S mutant),"EC50 (human CaSR P39S mutant; mean ± s.e.m., n = 3)"
"CC(C)[C@H](NC(=O)CC[C@H](N)C(=O)O)C(=O)O [γ-EV, γ-glutamyl-valine]",no response,no response,,,,
"N[C@@H](Cc1ccc(O)cc1)C(=O)O [L-Tyr, L-tyrosine]",no response,no response,,,,
"CC(C)C(NC(=O)CCC(N)C(=O)O)C(=O)NCC(=O)O (stereo not drawn) [γ-EVG, γ-glutamyl-valyl-glycine] (γGlu-Val-Gly-OH; configuration not given here)",completely abolished the activity,large decrease in the response,,,,
[Ca+2].[Cl-].[Cl-] [CaCl2],,,105.0 % of WT,3.47 ± 0.4 mM,74.5 % of WT,7.52 ± 0.23 mM

# Source: publication PMC11785791, “Cryo-EM structure of the calcium-sensing receptor complexed with the kokumi substance γ-glutamyl-valyl-glycine” (Scientific Reports, 2025)
